Measurements reported in US6358885B1, “Substituted phenylheterocyclic herbicides” (Mississippi State University, priority 1992, dated 2002).

Experiments:
[1] = tested on: cheatgrass; assay: Test B preemergence/postemergence greenhouse plant response rating 0 to 10; type: in vivo, Bromus secalinus; conditions: 0 to 10 scale
How it was run: (§1)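 Planted seeds are treated preemergence with compound dissolved in a non-phytotoxic solvent, while postemergence applications go onto plants of two to eighteen cm. Plants stay in the greenhouse twelve to sixteen days and are then rated visually relative to controls.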

[2] = tested on: chickweed; assay: as above; type: in vivo, Stellaria media; conditions: 0 to 10 scale
How it was run: as §1

[3] = tested on: corn; assay: as above; type: in vivo, Zea mays; conditions: 0 to 10 scale
How it was run: as §1

[4] = tested on: giant foxtail; assay: as above; type: in vivo, Setaria faberii; conditions: 0 to 10 scale
How it was run: as §1

[5] = tested on: sorghum; assay: as above; type: in vivo, Sorghum bicolor; conditions: 0 to 10 scale
How it was run: as §1

[6] = tested on: wild buckwheat; assay: as above; type: in vivo, Polygonum convolvulus; conditions: 0 to 10 scale
How it was run: as §1

[7] = tested on: wild oat; assay: as above; type: in vivo, Avena fatua; conditions: 0 to 10 scale
How it was run: as §1

[8] = tested on: barley; assay: Test C preemergence/postemergence greenhouse plant response rating 0 to 100; type: in vivo, Hordeum vulgare; conditions: POSTEMERGENCE; for Plant response rating Barley Igri: 0 to 100 scale
How it was run: (§2)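 Compounds in non-phytotoxic solvent went onto sandy loam before emergence (seeded one day earlier) or onto plants at the one-to-four leaf stage. Duck salad was treated via flood water (~2.5 cm, maintained) over silt loam.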

[9] = tested on: chickweed; assay: as above; type: in vivo, Stellaria media; conditions: POSTEMERGENCE; for Plant response rating, Chickweed: 0 to 100 scale
How it was run: as §2

[10] = tested on: cotton; assay: as above; type: in vivo, Gossypium hirsutum; conditions: POSTEMERGENCE; for Plant response rating, Cotton: 0 to 100 scale
How it was run: as §2

[11] = tested on: downy brome; assay: as above; type: in vivo, Bromus tectorum; conditions: POSTEMERGENCE; for Plant response rating Downy Brome: 0 to 100 scale
How it was run: as §2

[12] = tested on: lambsquarters; assay: as above; type: in vivo, Chenopodium album; conditions: POSTEMERGENCE; for Plant response rating Lambsquarters: 0 to 100 scale
How it was run: as §2

[13] = tested on: ryegrass; assay: as above; type: in vivo, Lolium multiflorum; conditions: POSTEMERGENCE; for Plant response rating Ryegrass: 0 to 100 scale
How it was run: as §2

[14] = tested on: soybean; assay: as above; type: in vivo, Glycine max; conditions: POSTEMERGENCE; for Plant response rating, Soybean: 0 to 100 scale
How it was run: as §2

[15] = tested on: sugar beet; assay: as above; type: in vivo, Beta vulgaris; conditions: POSTEMERGENCE; for Plant response rating, Sugar beet: 0 to 100 scale
How it was run: as §2

[16] = tested on: velvetleaf; assay: as above; type: in vivo, Abutilon theophrasti; conditions: POSTEMERGENCE; for Plant response rating, Velvetleaf: 0 to 100 scale
How it was run: as §2

[17] = tested on: wild buckwheat; assay: as above; type: in vivo, Polygonum convolvulus; conditions: POSTEMERGENCE; for Plant response rating, Wild buckwheat: 0 to 100 scale
How it was run: as §2

[18] = tested on: duck salad; assay: Test C flood test plant response rating 0 to 100; type: in vivo, Heteranthera limosa; conditions: for Plant response rating Duck salad: flood test species listed under POSTEMERGENCE, 0 to 100 scale
How it was run: as §2

CCC(C)Oc1cc(-c2nn3c(c2Cl)CCCC3)c(F)cc1Cl (stereo not shown) [Compound 48]
Plant response rating, Cheatgrass ([1]; POSTEMERGENCE, Rate 50 g/ha): 6 | Plant response rating, Cheatgrass ([1]; POSTEMERGENCE, Rate 200 g/ha): 7 | Plant response rating, Cheatgrass ([1]; PREEMERGENCE, Rate 50 g/ha): 0 | Plant response rating, Cheatgrass ([1]; Rate 200 g/ha, PREEMERGENCE): 2 | Plant response rating, Chickweed ([2]; POSTEMERGENCE, Rate 50 g/ha): 9 | Plant response rating, Chickweed ([2]; POSTEMERGENCE, Rate 200 g/ha): 8 | Plant response rating, Chickweed ([2]; Rate 200 g/ha, PREEMERGENCE): 4 | Plant response rating, Corn ([3]; POSTEMERGENCE, Rate 50 g/ha): 3 | Plant response rating, Corn ([3]; POSTEMERGENCE, Rate 200 g/ha): 3 | Plant response rating, Corn ([3]; PREEMERGENCE, Rate 50 g/ha): 0 | Plant response rating, Corn ([3]; Rate 200 g/ha, PREEMERGENCE): 1 | Plant response rating, Giant foxtail ([4]; POSTEMERGENCE, Rate 50 g/ha): 6 | Plant response rating, Giant foxtail ([4]; PREEMERGENCE, Rate 50 g/ha): 6 | Plant response rating, Giant foxtail ([4]; Rate 200 g/ha, POSTEMERGENCE): 9 | Plant response rating, Giant foxtail ([4]; Rate 200 g/ha, PREEMERGENCE): 9 | Plant response rating, Sorghum ([5]; POSTEMERGENCE, Rate 50 g/ha): 4 | Plant response rating, Sorghum ([5]; PREEMERGENCE, Rate 50 g/ha): 0 | Plant response rating, Sorghum ([5]; Rate 200 g/ha, POSTEMERGENCE): 6 | Plant response rating, Sorghum ([5]; Rate 200 g/ha, PREEMERGENCE): 1 | Plant response rating, Wild buckwheat ([6]; POSTEMERGENCE, Rate 50 g/ha): 10 | Plant response rating, Wild buckwheat ([6]; PREEMERGENCE, Rate 50 g/ha): 9 | Plant response rating, Wild buckwheat ([6]; Rate 200 g/ha, POSTEMERGENCE): 9 | Plant response rating, Wild buckwheat ([6]; Rate 200 g/ha, PREEMERGENCE): 10 | Plant response rating, Wild oat ([7]; POSTEMERGENCE, Rate 50 g/ha): 4 | Plant response rating, Wild oat ([7]; PREEMERGENCE, Rate 50 g/ha): 0 | Plant response rating, Wild oat ([7]; Rate 200 g/ha, POSTEMERGENCE): 6 | Plant response rating Barley Igri ([8]; 62 g/ha): 30 | Plant response rating Barley Igri ([8]; 250 g/ha): 40 | Plant response rating (0 to 100), Barley Igri ([8]; Rate 4 g/ha): 10 | Plant response rating (0 to 100), Barley Igri ([8]; Rate 16 g/ha): 20 | Plant response rating, Chickweed ([9]; 62 g/ha): 60 | Plant response rating, Chickweed ([9]; 250 g/ha): 80 | Plant response rating (0 to 100), Chickweed ([9]; Rate 4 g/ha): 10 | Plant response rating (0 to 100), Chickweed ([9]; Rate 16 g/ha): 30 | Plant response rating, Cotton ([10]; 62 g/ha): 100 | Plant response rating, Cotton ([10]; 250 g/ha): 100 | Plant response rating (0 to 100), Cotton ([10]; Rate 4 g/ha): 90 | Plant response rating (0 to 100), Cotton ([10]; Rate 16 g/ha): 100 | Plant response rating Downy Brome ([11]; 62 g/ha): 40 | Plant response rating Downy Brome ([11]; 250 g/ha): 70 | Plant response rating (0 to 100), Downy Brome ([11]; Rate 4 g/ha): 0 | Plant response rating (0 to 100), Downy Brome ([11]; Rate 16 g/ha): 20 | Plant response rating Lambsquarters ([12]; 62 g/ha): 100 | Plant response rating Lambsquarters ([12]; 250 g/ha): 100 | Plant response rating (0 to 100), Lambsquarters ([12]; Rate 4 g/ha): 60 | Plant response rating (0 to 100), Lambsquarters ([12]; Rate 16 g/ha): 60 | Plant response rating Ryegrass ([13]; 62 g/ha): 30 | Plant response rating Ryegrass ([13]; 250 g/ha): 50 | Plant response rating (0 to 100), Ryegrass ([13]; Rate 4 g/ha): 10 | Plant response rating (0 to 100), Ryegrass ([13]; Rate 16 g/ha): 20 | Plant response rating, Soybean ([14]; 62 g/ha): 40 | Plant response rating, Soybean ([14]; 250 g/ha): 50 | Plant response rating (0 to 100), Soybean ([14]; Rate 4 g/ha): 30 | Plant response rating (0 to 100), Soybean ([14]; Rate 16 g/ha): 30 | Plant response rating, Sugar beet ([15]; 62 g/ha): 100 | Plant response rating, Sugar beet ([15]; 250 g/ha): 100 | Plant response rating (0 to 100), Sugar beet ([15]; Rate 4 g/ha): 100 | Plant response rating (0 to 100), Sugar beet ([15]; Rate 16 g/ha): 100 | Plant response rating, Velvetleaf ([16]; 62 g/ha): 90 | Plant response rating, Velvetleaf ([16]; 250 g/ha): 90 | Plant response rating (0 to 100), Velvetleaf ([16]; Rate 4 g/ha): 30 | Plant response rating (0 to 100), Velvetleaf ([16]; Rate 16 g/ha): 80 | Plant response rating, Wild buckwheat ([17]; 62 g/ha): 100 | Plant response rating, Wild buckwheat ([17]; 250 g/ha): 100 | Plant response rating (0 to 100), Wild buckwheat ([17]; Rate 4 g/ha): 60 | Plant response rating (0 to 100), Wild buckwheat ([17]; Rate 16 g/ha): 85 | Plant response rating (0 to 100), Duck salad ([18]; POSTEMERGENCE section, flood test, Rate 4 g/ha): 0 | Plant response rating (0 to 100), Duck salad ([18]; Rate 16 g/ha, under POSTEMERGENCE head (flood test species)): 10 | Plant response rating Duck salad ([18]; 62 g/ha): 60 | Plant response rating Duck salad ([18]; 250 g/ha): 80
